Where a name gives a salt, the structure may show the parent alone.
How the values were obtained:
Format in all cases: biochemical
Bovine LOX = Bovine LOX (Bos taurus (Bovine), UniProt P33072); assay: LOX inhibition, peroxidase-coupled Amplex Red amine oxidase assay; conditions: 30 min preincubation at 37° C., putrescine substrate
Text: (§1) Method to Determine the Ability of Compounds of the Invention to Inhibit LOX and LOXL1-4 from Different Sources
Lysyl oxidase (LOX) is an extracellular copper dependent enzyme which oxidizes peptidyl lysine and hydroxylysine residues in collagen and lysine residues in elastin to produce peptidyl alpha-aminoadipic-delta-semialdehydes. […] There are five LOX family members; these are LOX, LOXL1, LOXL2, LOXL3 and LOXL4. LOX and LOXL family members can be acquired as recombinant active proteins from commercial sources, or extracted from animal tissues like bovine aorta, tendons, pig skin; or prepared from cell cultures. The inhibitory effects of the compounds of the present invention were tested against the given LOX-LOXL preparation using a high-throughput coupled colorimetric method (Holt A. and Palcic M., A peroxidase-coupled continuous absorbance plate-reader assay for flavin monoamine oxidases, copper-containing amine oxidases and related enzymes. Nat. Protoc. 2006; 1: 2498-2505). The assay was developed using either 384 or 96 well format. Briefly, in a standard 384 well plate assay 25 μL of a dilution of any of the isoenzymes and orthologues in 1.2 M urea, 50 mM sodium borate buffer (pH 8.2) were added into each well in the presence of 1 μM mofegiline and 0.5 mM pargyline (to inhibit SSAO and MAO-B and MAO-A, respectively). […] Twenty five μL of a reaction mixture containing twice the KM concentration of putrescine (Sigma Aldrich, e.g. 20 mM for LOX, or 10 mM for LOXL2 and LOXL3), 120 μM Amplex Red (Sigma Aldrich) and 1.5 U/mL horseradish peroxidase (Sigma Aldrich) prepared in 1.2 M urea, 50 mM sodium borate buffer (pH 8.2) were then added to the corresponding wells. The above volumes were doubled in the case of 96 wells plate. The fluorescence (RFU) was read every 2.5 min for 30 min at a range of temperatures from 37° to 45° C., excitation 565 nm and emission 590 (Optima; BMG labtech). The slope of the kinetics for each well was calculated using MARS data analysis software (BMG labtech) and this value was used to deduce the IC50 value (Dotmatics).

Human LOXL2 = Human LOXL2 (Homo sapiens (Human), UniProt Q9Y4K0); assay: LOXL2 inhibition, peroxidase-coupled Amplex Red amine oxidase assay; conditions: 30 min preincubation at 37° C., putrescine substrate
Text: as §1
Lysyl oxidase (LOX) is an extracellular copper dependent enzyme which oxidizes peptidyl lysine and hydroxylysine residues in collagen and lysine residues in elastin to produce peptidyl alpha-aminoadipic-delta-semialdehydes. […] There are five LOX family members; these are LOX, LOXL1, LOXL2, LOXL3 and LOXL4. LOX and LOXL family members can be acquired as recombinant active proteins from commercial sources, or extracted from animal tissues like bovine aorta, tendons, pig skin; or prepared from cell cultures. The inhibitory effects of the compounds of the present invention were tested against the given LOX-LOXL preparation using a high-throughput coupled colorimetric method (Holt A. and Palcic M., A peroxidase-coupled continuous absorbance plate-reader assay for flavin monoamine oxidases, copper-containing amine oxidases and related enzymes. Nat. Protoc. 2006; 1: 2498-2505). The assay was developed using either 384 or 96 well format. Briefly, in a standard 384 well plate assay 25 μL of a dilution of any of the isoenzymes and orthologues in 1.2 M urea, 50 mM sodium borate buffer (pH 8.2) were added into each well in the presence of 1 μM mofegiline and 0.5 mM pargyline (to inhibit SSAO and MAO-B and MAO-A, respectively). Test compounds were dissolved in DMSO and tested in a Concentration Response Curve (CRC) with 11 data points, typically in the micromolar or nanomolar range after incubation with the enzyme for 30 min at 37° C. Twenty five μL of a reaction mixture containing twice the KM concentration of putrescine (Sigma Aldrich, e.g. 20 mM for LOX, or 10 mM for LOXL2 and LOXL3), 120 μM Amplex Red (Sigma Aldrich) and 1.5 U/mL horseradish peroxidase (Sigma Aldrich) prepared in 1.2 M urea, 50 mM sodium borate buffer (pH 8.2) were then added to the corresponding wells. The above volumes were doubled in the case of 96 wells plate. The fluorescence (RFU) was read every 2.5 min for 30 min at a range of temperatures from 37° to 45° C., excitation 565 nm and emission 590 (Optima; BMG labtech). The slope of the kinetics for each well was calculated using MARS data analysis software (BMG labtech) and this value was used to deduce the IC50 value (Dotmatics).

[1] = target: Human recombinant SSAO/VAP-1 (Homo sapiens (Human), UniProt Q16853); assay: Human recombinant SSAO/VAP-1 amine oxidase inhibition; conditions: 30 min preincubation at 37° C., 600 μM benzylamine
Experimental: Method to Determine the Ability of Compounds of Formula I to Inhibit Human Recombinant SSAO/VAP-1
Human recombinant SSAO/VAP-1 amine oxidase activity was determined using the coupled colorimetric method as described for monoamine oxidase, copper-containing amine oxidases and related enzymes (Holt A. and Palcic M., A peroxidase-coupled continuous absorbance plate-reader assay for flavin monoamine oxidases, copper-containing amine oxidases and related enzymes. Nat Protoc 2006; 1: 2498-2505). Briefly, a cloned cDNA template corresponding to residues 34-763 of human SSAO/VAP-1, and incorporating a mouse Ig kappa (κ) signal sequence, N-terminal flag epitope tag and tobacco etch virus (TEV) cleavage site, was assembled in a mammalian expression vector (pLO-CMV) by Geneart AG. This vector containing human SSAO/VAP-1 residues was transfected into CHO-K1 glycosylation mutant cell line, Lec 8. A clone stably expressing human SSAO/VAP-1 was isolated and cultured in large scale. Active human SSAO/VAP-1 was purified and recovered using immunoaffinity chromatography. This was used as the source for SSAO/VAP-1 activity. A high-throughput colorimetric assay was developed using either 96 or 384 well format. Briefly, in a standard 96 well plate assay 50 μL of purified human SSAO/VAP-1 (0.25 μg/mL) in 0.1 M sodium phosphate buffer (pH 7.4) was added into each well. Test compounds were dissolved in DMSO and tested in a Concentration Response Curve (CRC) with 4-11 data points, typically in the micromolar or nanomolar range after incubation with human SSAO/VAP-1 for 30 min at 37° C. After 30 min incubation, 50 μL of the reaction mixture containing 600 μM benzylamine (Sigma Aldrich), 120 μM Amplex Red (Sigma Aldrich) and 1.5 U/mL horseradish peroxidase (Sigma Aldrich) prepared in 0.1 M sodium phosphate buffer (pH 7.4) were added to the corresponding well. The fluorescence unit (RFU) was read every 2.5 min for 30 min at 37° C. excitation 565 nm and emission 590 (Optima; BMG labtech). The slope of the kinetics for each well was calculated using MARS data analysis software (BMG labtech) and this value was used to deduce the IC50 value (Dotmatics).

Recombinant human MAO-B = Recombinant human MAO-B (Homo sapiens (Human), UniProt P27338); assay: Human recombinant MAO-B inhibition; conditions: benzylamine 100 μM
Experimental: Method to Determine the Ability of Compounds of Formula I to Inhibit Human Recombinant MAO-B
The specificity of the compounds of this invention was tested by determining their ability to inhibit MAO-B activities in vitro. Recombinant human MAO-B (0.06 mg/mL; Sigma Aldrich) was used as source of MAO-B enzyme activities. The assay was performed in a similar way as for human SSAO/VAP-1 (Example 36) except, the substrate benzylamine was used at 100 μM.

Chain of Bovine LOX (P33072 170-418): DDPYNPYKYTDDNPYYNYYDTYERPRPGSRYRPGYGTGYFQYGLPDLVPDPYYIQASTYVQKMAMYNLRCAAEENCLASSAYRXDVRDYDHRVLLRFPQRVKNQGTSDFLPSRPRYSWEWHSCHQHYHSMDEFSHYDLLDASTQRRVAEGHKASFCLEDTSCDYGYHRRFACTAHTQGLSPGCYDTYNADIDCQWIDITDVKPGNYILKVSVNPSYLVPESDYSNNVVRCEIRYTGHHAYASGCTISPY
Chain of Recombinant human MAO-B (P27338 whole entry): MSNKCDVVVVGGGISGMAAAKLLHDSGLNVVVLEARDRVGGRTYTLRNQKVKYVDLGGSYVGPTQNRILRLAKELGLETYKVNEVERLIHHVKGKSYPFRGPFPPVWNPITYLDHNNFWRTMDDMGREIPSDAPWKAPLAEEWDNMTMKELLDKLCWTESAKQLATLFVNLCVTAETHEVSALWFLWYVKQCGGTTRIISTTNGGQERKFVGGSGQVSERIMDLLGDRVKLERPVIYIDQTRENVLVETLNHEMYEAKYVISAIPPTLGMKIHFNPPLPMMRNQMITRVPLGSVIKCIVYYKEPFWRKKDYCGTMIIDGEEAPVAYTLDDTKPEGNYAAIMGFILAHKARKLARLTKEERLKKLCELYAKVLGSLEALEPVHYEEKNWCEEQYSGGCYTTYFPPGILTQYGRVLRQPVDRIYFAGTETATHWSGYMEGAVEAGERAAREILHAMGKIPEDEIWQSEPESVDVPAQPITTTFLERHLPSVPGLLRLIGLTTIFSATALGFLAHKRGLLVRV
Chain of Human LOXL2 (Q9Y4K0 26-774): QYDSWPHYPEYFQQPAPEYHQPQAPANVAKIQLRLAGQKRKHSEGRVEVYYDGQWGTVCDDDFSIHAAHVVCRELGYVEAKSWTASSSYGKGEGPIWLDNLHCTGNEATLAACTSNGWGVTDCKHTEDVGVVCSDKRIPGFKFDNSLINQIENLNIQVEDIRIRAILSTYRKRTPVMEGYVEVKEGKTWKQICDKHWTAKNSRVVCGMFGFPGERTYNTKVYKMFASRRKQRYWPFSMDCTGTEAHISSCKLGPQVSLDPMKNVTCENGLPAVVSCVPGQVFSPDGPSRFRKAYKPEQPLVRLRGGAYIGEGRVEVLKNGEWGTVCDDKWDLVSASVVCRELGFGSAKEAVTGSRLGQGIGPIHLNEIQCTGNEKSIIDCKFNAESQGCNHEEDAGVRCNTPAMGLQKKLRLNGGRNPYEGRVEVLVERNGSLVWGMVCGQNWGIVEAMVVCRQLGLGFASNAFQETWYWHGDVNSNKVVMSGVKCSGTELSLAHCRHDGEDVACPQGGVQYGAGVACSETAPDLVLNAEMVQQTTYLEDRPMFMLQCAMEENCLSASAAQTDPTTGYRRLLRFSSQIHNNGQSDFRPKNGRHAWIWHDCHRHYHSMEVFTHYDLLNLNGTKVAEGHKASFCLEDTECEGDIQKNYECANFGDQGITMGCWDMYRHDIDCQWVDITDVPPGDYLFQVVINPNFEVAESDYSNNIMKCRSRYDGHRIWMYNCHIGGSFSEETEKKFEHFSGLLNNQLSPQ
Chain of Human recombinant SSAO/VAP-1 (Q16853 34-763): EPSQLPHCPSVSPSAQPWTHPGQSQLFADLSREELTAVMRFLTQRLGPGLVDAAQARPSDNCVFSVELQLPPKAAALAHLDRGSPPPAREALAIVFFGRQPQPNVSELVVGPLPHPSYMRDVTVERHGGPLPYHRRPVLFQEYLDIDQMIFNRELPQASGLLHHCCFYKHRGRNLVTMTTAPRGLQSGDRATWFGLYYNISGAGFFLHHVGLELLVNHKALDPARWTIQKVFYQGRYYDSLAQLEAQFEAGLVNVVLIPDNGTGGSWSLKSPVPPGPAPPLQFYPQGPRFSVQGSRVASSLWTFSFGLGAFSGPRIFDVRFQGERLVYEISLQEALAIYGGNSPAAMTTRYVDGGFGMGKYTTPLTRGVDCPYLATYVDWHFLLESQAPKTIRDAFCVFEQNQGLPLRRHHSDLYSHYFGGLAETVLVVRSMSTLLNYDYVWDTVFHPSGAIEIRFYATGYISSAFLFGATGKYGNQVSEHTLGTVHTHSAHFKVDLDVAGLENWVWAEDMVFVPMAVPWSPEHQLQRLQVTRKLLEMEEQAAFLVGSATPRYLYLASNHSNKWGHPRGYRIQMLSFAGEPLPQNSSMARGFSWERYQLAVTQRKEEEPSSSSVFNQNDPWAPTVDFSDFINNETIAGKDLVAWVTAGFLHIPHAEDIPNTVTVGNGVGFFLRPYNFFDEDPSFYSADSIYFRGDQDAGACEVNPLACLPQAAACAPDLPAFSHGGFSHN

SMILES	IC50 (Bovine LOX) [µM]	IC50 (Human LOXL2) [µM]	IC50 [1] [µM]	IC50 (Recombinant human MAO-B) [µM]
Cc1c(Cc2ccc(S(=O)(=O)N(C)C)cc2)c2nc(F)ccc2n1C/C(F)=C/CN [Compound 23, (Z)-4-((1-(4-amino-2-fluorobut-2-en-1-yl)-5-fluoro-2-methyl-1H-pyrrolo[3,2-b]pyridin-3-yl)methyl)-N,N-dimethylbenzenesulfonamide dihydrochloride]	> 0.3	< 0.3	> 3	> 3
Cc1c(Cc2ccc(S(=O)(=O)N(C)C)cc2)c2ncc(F)cc2n1C/C(F)=C/CN [Compound 24, (Z)-4-((1-(4-amino-2-fluorobut-2-en-1-yl)-6-fluoro-2-methyl-1H-pyrrolo[3,2-b]pyridin-3-yl)methyl)-N,N-dimethylbenzenesulfonamide dihydrochloride]	> 0.3	< 0.3	> 3	> 3
CN(C)S(=O)(=O)c1ccc(Cc2c(C(C)(C)O)n(C/C(F)=C/CN)c3cccnc23)cc1 [Compound 25, (Z)-4-((1-(4-amino-2-fluorobut-2-en-1-yl)-2-(2-hydroxypropan-2-yl)-1H-pyrrolo[3,2-b]pyridin-3-yl)methyl)-N,N-dimethylbenzenesulfonamide dihydrochloride]	> 0.3	< 0.3	> 3	> 3
Cc1c(Cc2ccc(S(=O)(=O)N(C)C)cc2)c2ccccc2n1C/C(F)=C/CN [Compound 26, (Z)-4-((1-(4-amino-2-fluorobut-2-en-1-yl)-2-methyl-1H-indol-3-yl)methyl)-N,N-dimethylbenzene-sulfonamide hydrochloride]	> 0.3	< 0.3	> 3	> 3
Cc1c(Cc2ccc(S(C)(=O)=O)nc2)c2nc(C3CC3)ccc2n1C/C(F)=C/CN [Compound 27, (Z)-4-(5-cyclopropyl-2-methyl-3-((6-(methylsulfonyl)pyridin-3-yl)methyl)-1H-pyrrolo[3,2-b]pyridin-1-yl)-3-fluorobut-2-en-1-amine trihydrochloride]	> 0.3	< 0.3	> 3	> 3
Cc1c(Cc2ccc(S(=O)(=O)N(C)C)cc2)c2nc(C(C)(C)O)ccc2n1C/C(F)=C/CN [Compound 28, (Z)-4-((1-(4-amino-2-fluorobut-2-en-1-yl)-5-(2-hydroxypropan-2-yl)-2-methyl-1H-pyrrolo[3,2-b]pyridin-3-yl)methyl)-N,N-dimethylbenzenesulfonamide dihydrochloride]	> 0.3	< 0.3	> 3	> 3
CC(O)c1c(Cc2ccc(S(=O)(=O)N(C)C)cc2)c2ncccc2n1C/C(F)=C/CN (stereo not drawn) [Compound 29, (Z)-4-((1-(4-amino-2-fluorobut-2-en-1-yl)-2-(1-hydroxyethyl)-1H-pyrrolo[3,2-b]pyridin-3-yl)methyl)-N,N-dimethylbenzenesulfonamide dihydrochloride]	> 0.3	< 0.3	> 3	> 3
Cc1c(Cc2ccc(S(C)(=O)=O)nc2)c2nc(C(C)(F)F)ccc2n1C/C(F)=C/CN [Compound 30, (Z)-4-(5-(1,1-difluoroethyl)-2-methyl-3-((6-(methylsulfonyl)pyridin-3-yl)methyl)-1H-pyrrolo[3,2-b]pyridin-1-yl)-3-fluorobut-2-en-1-amine trihydrochloride]	> 0.3	< 0.3	> 3	> 3
Cc1c(Cc2ccc(S(C)(=O)=O)nc2)c2nc(C(F)(F)F)ccc2n1C/C(F)=C/CN [Compound 31, (Z)-3-fluoro-4-(2-methyl-3-((6-(methylsulfonyl)pyridin-3-yl)methyl)-5-(trifluoromethyl)-1H-pyrrolo[3,2-b]pyridin-1-yl)but-2-en-1-amine trihydrochloride]	> 0.3	< 0.3	> 3	> 3
Cc1c(Cc2ccc(S(=O)(=O)N(C)C)cc2)c2cnccc2n1C/C(F)=C/CN [Compound 32, (Z)-4-((1-(4-amino-2-fluorobut-2-en-1-yl)-2-methyl-1H-pyrrolo[3,2-c]pyridin-3-yl)methyl)-N,N-dimethylbenzenesulfonamide dihydrochloride]	> 0.3	< 0.3	> 3	> 3
CC(C)c1c(Cc2ccc(S(C)(=O)=O)cc2)c2ncccc2n1C/C(F)=C/CN [Compound 33, (Z)-3-fluoro-4-(2-isopropyl-3-(4-(methylsulfonyl)benzyl)-1H-pyrrolo[3,2-b]pyridin-1-yl)but-2-en-1-amine dihydrochloride]	> 0.3	< 0.3	> 3	> 3
Cc1cc(S(C)(=O)=O)ccc1Cc1c(C)n(C/C(F)=C/CN)c2cccnc12 [Compound 34, (Z)-3-fluoro-4-(2-methyl-3-(2-methyl-4-(methylsulfonyl)benzyl)-1H-pyrrolo[3,2-b]pyridin-1-yl)but-2-en-1-amine dihydrochloride]	> 0.3	< 0.3	> 3	> 3

— US10717734B2, “Indole and azaindole haloallylamine derivative inhibitors of lysyl oxidases and uses thereof” (PHARMAXIS LTD., priority 2016, dated 2020)
